Reference: paper PMC11375702, “Early Preclinical Studies of Ergosterol Peroxide and Biological Evaluation of Its Derivatives” (ACS Omega, 2024)

How the values were obtained:
MDA-MB-231 = assay: CellTiter-Glo 72 h cytotoxicity assay, MDA-MB-231; type: cell-based; conditions: Homo sapiens, CTG assay, read-out: MDA-MB231 (EC50)
Method: (§1) The following stable human cell lines were utilized for this study: SUM149 and MDA-MB-231 (breast cancer models) and BJ (human normal fibroblast, foreskin). Cells were purchased from BioIVT or the American Type Culture Collection (ATCC). Cells were cultured in F-12-Nutrient Mixture (SUM149), DMEM (MDA-MB-231), or EMEM (BJ) medium supplemented with 10% fetal bovine serum (Sigma-Aldrich, St. Louis, MO) and 2 mmol of L-glutamine, at 37 °C in a humidified 5% CO2 atmosphere (no antibiotics) as indicated by the manufacturer. Cell cultures were grown to 80–90% confluence before use, except where otherwise specified. Our cell lines are authenticated every 3 months using the CellCheck service (Idexx BioResearch, Westbrook, ME). Cells were tested for mycoplasma prior to use (MycoAlert detection Kit Lonza LT07–318) and discarded if they tested positive. A cell proliferation assay was performed using the CellTiter-Glo (Promega Corp., Madison, WI) luminescent cell viability assay kit. Cells were detached with trypsin, counted, and seeded in white polystyrene flat-bottom sterile 96-well tissue culture-treated plates (catalog no. 3917, Corning, Glendale, Arizona) and incubated overnight at 37 °C. MDA-MB231, SUM149, and BJ cells were seeded into 96-well plates at concentrations experimentally determined (0.4 × 10^4, 0.25 × 10^4, and 0.3 × 10^4 cells per well, respectively) to ensure logarithmic growth during the duration of the experiment and to prevent adverse effects on cell growth by DMSO exposure. The plates were incubated for 12 h before treatment. Stock solutions of test compounds (10 mM in DMSO) in nine 3-fold serial dilutions were dispensed. The final concentration of DMSO was 0.3% (v/v) in each well. The positive control used was staurosporine (10 μM) as the kill-all control, and the negative control used is DMSO as we have published. Staurosporine is a potent alkaloid inducer of various cell death modalities but primarily apoptosis, making it a reliable positive control for viability assays. The plates were incubated for 72 h and then quenched with CTG at 50 μL per well at RT. Plates were then incubated at RT for 20 min and centrifuged at 1000 rpm for 1 min. Luminescence was read on a CLARIOstar Plus plate reader (BMG LabTech, Ortenberg, Germany).
(§2) Three or four technical replicates were conducted for each experimental condition, and a minimum of three independent experiments were conducted for each assay. In vitro ADME values were expressed as mean ± standard deviation (SD) of at least three independent experiments. One-way analysis of variance (ANOVA) was adopted for comparisons among groups using the GraphPad Prism 10.2.3 (GraphPad Software, San Diego, CA). A difference of P < 0.05 was considered as statistically significant. Data are expressed as mean ± SEM. For CTG, the mean luminescence of each experimental treatment group was normalized as a percentage of the mean intensity of untreated controls (DMSO as vehicle). EC50 values were calculated from dose–response curve fitting via nonlinear regression using GraphPad Prism 10.2.3 (GraphPad Software, San Diego, CA). A therapeutic index (TI) between normal and tumor cell lines can be determined (EC50 non-neoplastic cell line BJ)/(EC50 cancer cell line). In vivo studies were analyzed using mixed-effects regression models to compare the changes in tumor volume over time by treatment group. Tumor volume reduction was compared using ANOVA with repeated measures, and all data was considered significant when P < 0.05.

[1] = Metabolic stability in human liver microsomes; type: in vitro ADME; conditions: both sexes, pooled liver microsomes, read-out: metabolic stability (human) t1/2 (converted)
Method: (§3) Human and/or mouse microsomal degradation was determined using multiple time points to monitor the rate of disappearance of the parent compound during incubation following the method described by Di et al.[51],[52] […] The metabolic stability was evaluated via the half-life from the least-squares fit of the multiple time points based on first-order kinetics. Waters ACQUITY-TOQ UPLC-MS-MS-UV system was used to analyze the samples as established in various MS core facilities.[51],[52]

[2] = Simulated gastric fluid (SGF) stability; type: in vitro ADME; conditions: simulated gi fluid; for half-life: SGF stability t1/2
Method: The simulated gastric fluid (SGF) assay is an important element in determining the overall drug-like potential of compounds.[29],[30] Anecdotal studies of oral consumption of extracts by humans indicate positive outcomes of digestion of mixtures of EP and its related natural products found in G. lucidum.[2] […] Chlorambucil was used as positive control as previously described.[32],[33] […] Caco-2 permeability studies were conducted to validate and to provide information on EP’s ability to cross the intestinal barrier and its potential for interactions with drug transporters.[36]−[39] The rate of transport in both directions (A-B and B-A) across the cell monolayer enables an efflux ratio (B-A/A-B) to be determined, enabling us to determine if a compound undergoes active efflux (efflux ratio ≥2).

[3] = Parallel Artificial Membrane Permeability Assay (PAMPA); type: in vitro ADME
Method: This assay is to analyze the permeability of various drugs/compounds on a homogeneous artificial lipid membrane using the normal Double-Sink PAMPA protocol. Then, 6 μL of 10 mM compound solution in DMSO was applied to each well in a stock plate. Compounds were diluted 200-fold in PBS buffer (pH = 7.4). 180 μL of diluted solution was added to a donor plate (pION INC, Woburn, MA). A filter plate (acceptor plate; pION INC, Woburn, MA) containing 200 μL of acceptor sink buffer (ASB, pH = 7.4; pION INC, Woburn, MA) was then placed over the donor plate. The plates were incubated at room temperature for 0.5 h with magnetic stirring in individual wells to allow the compounds to cross the membrane. Fractions were collected from both the donor plate and the acceptor plate, and the concentrations were assessed by UV spectrometry (230–500 nm). Sample preparation, sample analysis, and data processing are fully automated using a Biomek FX ADME-TOX workstation and the UV-based PAMPA Evolution-96 Command Software. All compounds were tested in triplicates.

[4] = Metabolic stability in mouse liver microsomes; type: in vitro ADME; conditions: female, CD-1, pooled liver microsomes, read-out: metabolic stability (mouse) t1/2 (converted)
Method: as §3

BJ = assay: CellTiter-Glo 72 h cytotoxicity assay, BJ normal fibroblasts; type: cell-based; conditions: Homo sapiens, CTG assay, noncancerous fibroblasts
Method: as §1, §2

Row | Compound | EC50 (MDA-MB-231) [µM] | half-life [1] [h] | half-life [2] [h] | Papp at 0.5 h, 50 µM ([3]; PAMPA, pH 7.4, pH 7.40, read-out: PAMPA Avg Pe) [×10⁻⁶ cm/s] | PAMPA %R ([3]; pH 7.40) [%] | PAMPA Avg Pe ([3]; pH 7.40) | half-life [4] [h] | EC50 (BJ) [µM] | SGF stability t1/2 [2] [h] | PAMPA Avg Pe ([3]; PAMPA, 0.5 h, 50 µM, pH 7.4)
1 | CC(C)[C@@H](C)/C=C/[C@@H](C)[C@H]1CC[C@@H]2[C@]1(C)CC[C@H]1[C@]23C=C[C@]2(C[C@@H](O)CC[C@]12C)OO3 [Compound 2, Ergosterol peroxide] | 18 | 2.74 | > 48 | 65.3 | 81.90 | 65.31 10–6 cm/s | 5.63 | > 50 | – | –
2 | CC(C)[C@@H](C)/C=C/[C@@H](C)[C@H]1CC[C@@H]2[C@]1(C)CC[C@H]1[C@]23C=C[C@]2(CC(=O)CC[C@]12C)OO3 [Compound 3] | 7 | 0.83 | ~9 | – | – | – | 0.9 | > 50 | 8.92 | 00 10–6 cm/s
